#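 Results reflect a 48-hour exposure of cells in 96-well plates to compound at five concentrations. GI50 is the concentration that inhibits growth by half. TGI: total growth inhibition.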 *1 amine or outer side, *2 acyl side, *3 side chain or, on linkers, in order; H or OH if unused. Where a SMILES comes first, the peptide text is derived from it. [ ]: non-standard residue; d: D form. The star is where a group is joined. X12 = NCCCCC(N[*:1])C(=O)CN1CCCC1C(=O)[*:2]; Pentadecanoyl = CCCCCCCCCCCCCCC(=O)*
# Experiments:
# Experiment in all cases: NCI tumour cell line growth inhibition, 48 h
# SF-539 CNS = test system: SF-539 CNS
# HOP-62 NSCLC = test system: HOP-62 NSCLC
# OVCAR-5 ovarian = test system: OVCAR-5 ovarian
# A498 renal = test system: A498 renal
# U251 CNS = test system: U251 CNS
# SNB-75 CNS = test system: SNB-75 CNS
# NCI-H522 lung = test system: NCI-H522 lung
# MDA-MB-435 = test system: MDA-MB-435
# K-562 leukemia = test system: K-562 leukemia
# CCRF-CEM leukemia = test system: CCRF-CEM leukemia
SMILES,TGI (SF-539 CNS) [µM],TGI (HOP-62 NSCLC) [µM],TGI (OVCAR-5 ovarian) [µM],TGI (A498 renal) [µM],TGI (U251 CNS) [µM],TGI (SNB-75 CNS) [µM],TGI (NCI-H522 lung) [µM],TGI (MDA-MB-435) [µM],TGI (K-562 leukemia) [µM],TGI (CCRF-CEM leukemia) [µM],GI50 (SF-539 CNS) [µM],GI50 (HOP-62 NSCLC) [µM],GI50 (OVCAR-5 ovarian) [µM],GI50 (A498 renal) [µM],GI50 (SNB-75 CNS) [µM],GI50 (NCI-H522 lung) [µM],GI50 (MDA-MB-435) [µM],GI50 (K-562 leukemia) [µM],GI50 (CCRF-CEM leukemia) [µM]
COc1ccc(C2CCc3c(cnc4nc(N)nc(N)c34)C2)cc1 (stereo not drawn),> 100,65,> 100,> 100,> 100,26.7,44.9,> 100,> 100,,,,,,,,,,
COc1ccc2c(-c3csc(-c4c[nH]c5ccccc45)n3)c[nH]c2c1,65.5,49.2,> 50.7,21.6,29.8,91.7,25.4,> 100,> 22.1,> 63.3,,,,,,,,,
O=C1CCc2c(sc3ncnc(Nc4cccc(Br)c4)c23)C1,13.2,18.7,23.4,31.4,9.02,12.5,6.17,3.82,> 22.7,4.38,,,,,,,,,
Nc1nc(Cl)cc(NCC2CC(O)(CO)C2)n1 (stereo not drawn),> 100,> 100,> 100,> 100,> 100,> 100,> 100,> 100,> 100,> 100,,,,,,,,,
O=c1[nH]c(=O)c2c([nH]1)[nH]c1ccccc12,> 100,> 100,> 100,> 100,,> 100,> 100,> 100,> 100,> 100,,,,,,,,,
Clc1ccc(C2=NNC(c3cccc(Cl)c3)C2)cc1 (stereo not drawn),> 100,> 100,> 100,45,37.5,96.5,14.4,41.8,> 100,96.8,,,,,,,,,
c1ccc2c(c1)[C@@H]1O[C@@H]1[C@@]13O[C@@]21[C@H]1O[C@H]1c1ccccc13,34.9,30.8,34.8,30.7,28.2,27.2,25.4,28.7,41.7,24.3,,,,,,,,,
CC(=O)c1c2c(cc3c1CCC3)CCC2,> 100,> 100,> 100,> 100,> 100,> 100,> 100,> 100,> 100,> 100,,,,,,,,,
O=C(OCC(OC(=O)c1ccccc1)C1CC(C(O)C2CCCCC2)C(=O)O1)c1ccccc1 (stereo not drawn),66.1,> 100,> 100,> 100,> 100,> 100,> 100,> 100,50.5,52.8,,,,,,,,,
CN1C(=O)[C@](C)(Cc2ccc(F)cc2)N(C(=O)OC(C)(C)C)[C@@H]1C(C)(C)C,> 100,> 100,> 100,70,> 100,> 100,46.9,> 100,65.7,> 100,,,,,,,,,
O=C(O)CCC(NC(=O)/C(=C/c1ccccc1)NC(=O)c1ccccc1)C(=O)O (stereo not drawn),> 100,> 100,> 100,> 100,,> 100,> 100,> 100,> 100,> 100,,,,,,,,,
Fc1sc2c(c1F)C1CCC2C1 (stereo not drawn),> 100,> 100,> 100,> 100,> 100,> 100,> 100,> 100,,,,,,,,,,,
Cc1cccc2c1C(=O)/C(=C/c1ccccc1C(=O)O)C2,> 100,> 100,> 100,> 100,> 100,> 100,> 100,> 100,> 100,> 100,,,,,,,,,
[O-][n+]1cc(SCc2ccccc2)ncc1SCc1ccccc1,> 10,> 10,> 10,> 10,> 10,> 10,> 10,> 10,> 10,> 10,,,,,,,,,
CC1=NNC(N)=N/C1=C\C(Sc1ccc(Cl)cc1)c1ccc(Cl)cc1Cl (stereo not drawn),,57.8,36.7,42.8,> 57.1,32.9,18.6,> 76.6,56.3,7.62,,,,,,,,,
CC(=O)OCC12C(OC(C)=O)C[C@@H](C)C3(CC(c4ccoc4)OC3=O)C1CCC(OC(C)=O)C21CO1 (stereo partly drawn),> 100,> 100,> 100,> 100,> 100,> 100,> 100,> 100,> 100,> 100,,,,,,,,,
N#Cc1nc(-c2ccccn2)c(-c2ccccn2)nc1C#N,21.5,17,10,8.19,> 37.3,22.9,16.6,22.4,19.4,> 38.4,,,,,,,,,
CCOC(=O)c1sc2[n+](c1C)C(=O)/C(=C/c1ccccc1Cl)S2,15.2,60.9,> 62,> 56.8,24.4,> 54.3,7.65,> 100,24.2,> 72.8,,,,,,,,,
O=C(N(C1=CCCC1)N(c1ccccc1)c1ccccc1)C(F)(F)F,45.9,69.4,> 100,> 100,42.2,> 100,25.3,50.4,68.7,91.8,,,,,,,,,
O=C1CSC(c2cc3cc(Br)ccc3nc2Cl)N1c1ccc(F)c(Cl)c1 (stereo not drawn),> 50,> 50,> 50,> 50,,> 50,> 50,> 50,> 50,> 50,,,,,,,,,
Cc1cc(S(=O)(=O)Nc2n[nH]c(N)n2)c(S)cc1Cl,> 10,> 10,> 10,> 10,> 10,> 10,> 10,> 10,> 10,> 10,,,,,,,,,
CC1CC2OC(=N)C1(C#N)C2(C#N)C#N (stereo not drawn),56.7,35.2,48.5,42,> 100,43.1,37.8,> 100,56.2,44.3,,,,,,,,,

SMILES,TGI (SF-539 CNS) [µM],TGI (HOP-62 NSCLC) [µM],TGI (OVCAR-5 ovarian) [µM],TGI (A498 renal) [µM],TGI (U251 CNS) [µM],TGI (SNB-75 CNS) [µM],TGI (NCI-H522 lung) [µM],TGI (MDA-MB-435) [µM],TGI (K-562 leukemia) [µM],TGI (CCRF-CEM leukemia) [µM],GI50 (SF-539 CNS) [µM],GI50 (HOP-62 NSCLC) [µM],GI50 (OVCAR-5 ovarian) [µM],GI50 (A498 renal) [µM],GI50 (SNB-75 CNS) [µM],GI50 (NCI-H522 lung) [µM],GI50 (MDA-MB-435) [µM],GI50 (K-562 leukemia) [µM],GI50 (CCRF-CEM leukemia) [µM]
O=C(Nc1ccccc1C(=O)O)C(=Cc1ccccc1O)NC(=O)c1ccccc1,> 100,> 100,> 100,> 100,> 100,> 100,> 100,> 100,> 100,> 100,,,,,,,,,
CCOC(=O)C1=C(C)N(c2ccc(Cl)cc2)C2(O)C=CC(=O)C3C(=O)N(c4ccccc4)C(=O)C132 (stereo not drawn),9.4,4.19,4.15,3.22,5.39,3.25,2.38,6.83,9.03,,,,,,,,,,
Oc1[nH]c2ccccc2c1N=NC(=S)NCc1ccccn1,5.06,6.87,22.7,7.51,6.22,6.6,14.7,17.4,,,,,,,,,,,
CCOC(=O)/C=C/C(Br)=C(Br)/C=C/C(=O)OCC,,36.7,34.9,74.3,27.9,26,7.14,18.1,10.9,2.84,,,,,,,,,
Cc1cc(=O)oc2c(CN(CCCl)CCCl)c(O)ccc12,> 100,> 100,> 100,> 100,> 100,> 100,36.4,> 100,> 100,31.7,,,,,,,,,
NC(=O)c1nnc2c(F)cccc2c1N,> 100,> 100,> 100,> 100,> 100,> 100,> 100,> 100,> 100,> 100,,,,,,,,,
CC(=O)c1nc(C#N)c(N)o1,> 100,> 100,> 100,> 100,> 100,> 100,> 100,> 100,> 100,> 100,,,,,,,,,
CCN(CC)CCC1(C(=O)OC)SCCc2ccc(C)cc21 (stereo not drawn),> 100,> 100,> 100,> 100,> 100,> 100,> 100,> 100,> 100,> 100,,,,,,,,,
CSC(=N/N=C(\C)c1ccc(S(=O)(=O)N(C)c2ccccc2)cc1)SC,> 100,> 100,> 100,> 100,> 100,> 100,> 100,> 100,> 100,> 95.2,,,,,,,,,
COc1nc2ncc([C@@H](O)[C@H](O)CO)nc2c(=O)[nH]1,> 100,> 100,> 100,> 100,> 100,> 100,> 100,> 100,> 100,> 100,,,,,,,,,
CN1CCN(C2CC(=O)c3c(Cl)sc(Cl)c32)CC1 (stereo not drawn),49.6,42.6,> 60.8,> 75,36,41.5,13.3,16.5,> 100,14.6,,,,,,,,,
CCCCCCCCCCCCCCC(=O)NC(CCCCN)C(=O)CN1CCCC1C(=O)NCC(=O)NC(Cc1ccccc1)C(=O)N1CCCC1C(=O)NC(CO)C(=O)NC(Cc1ccc(O)cc1)C(=O)NC(CCCCN)C(=O)NC(CC(C)C)C(=O)NC(CCCN=C(N)N)C(=O)N1CCCC1C(=O)NCC(N)=O (stereo not drawn) (Pentadecanoyl-[X12]GFPSYKLRPG-NH2; configuration not given here),59.9,45.2,44.4,> 100,,58.5,55.6,89.3,40,32.2,27.2,20.5,18.7,40.6,27.6,23.1,28.2,19.5,16.8
CC(C)(CO)Nc1c(O)c2c(c(O)c1Cl)C(=O)C=CC2=O,2.7,2.95,3.02,3.36,3.11,2.6,0.928,2.38,1.78,1.26,,,,,,,,,
NC(=O)c1ccc(S(=O)(=NS(=O)(=O)c2ccccc2)c2ccc(C(N)=O)cc2)cc1,> 100,> 100,> 100,> 100,> 100,> 100,> 100,> 100,> 100,> 100,,,,,,,,,
CCOC(=O)CCC1(C(=O)O[C@@H]2C[C@H](C)CC[C@H]2C(C)C)CCCCC1=O (stereo partly drawn),> 100,> 100,> 100,> 100,> 100,> 100,> 100,> 100,> 100,> 100,,,,,,,,,
O=C1CSC2=NC3=C(COC/C3=C\c3ccc(F)cc3)C(c3ccc(F)cc3)N12 (stereo not drawn),> 100,> 100,> 100,> 100,> 100,> 100,> 100,> 100,> 100,74.5,,,,,,,,,
Cn1c(-c2cccs2)cc(-c2ccsc2)c1-c1ccsc1,> 100,> 100,> 100,> 100,> 100,> 100,> 100,> 100,> 100,> 100,,,,,,,,,
COc1ccc(C2=C(N)c3cc(OC)ccc3C2=O)cc1,> 100,> 100,> 100,> 100,> 100,> 100,> 100,> 100,,,,,,,,,,,
COc1ccc(Cn2nc(OCc3ccccc3)c3cc([N+](=O)[O-])ccc32)cc1,> 100,> 100,> 100,> 100,,> 100,> 100,> 100,> 100,> 100,,,,,,,,,
CC1C/C(=C\c2ccc(O)c(O)c2)C(=O)/C(=C/c2ccc(O)c(O)c2)C1 (stereo not drawn),13,24.4,32.8,12.8,18.1,16.7,3.58,9.74,27.4,7.2,,,,,,,,,
COC1OC(=O)C(OC)C(OC)C1OC (stereo not drawn),> 100,> 100,> 100,> 100,> 100,> 100,> 100,> 100,> 100,,,,,,,,,,

# From PubChem BioAssay (NCI)
